Earlier results on 1 compound are cited in article PMC10664590 (Chemical Science, 2023).

As for `O=c1ccc2ccc(O)cc2o1` [7-hydroxy-cumarine], the long-wavelength absorption maximum entry was “around 330 nm”. In addition, the fluorescence maximum entry (in ethanol) is on record as “around 380 nm”.
